Laboratory results taken from patent US8906909B2 (Curis, Inc., priority 2009, dated 2014).

Columns and labels:
[1] = system: HDACs (HeLa cell nuclear extracts); assay: HDAC enzymatic activity, Biomol Color de Lys system; assay type: biochemical
In short: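 HeLa nuclear extract as HDAC source with Color de Lys substrate in 50 mM Tris/Cl pH 8.0, 137 mM NaCl, 2.7 mM KCl, 1 mM MgCl2. Serially diluted compounds reacted 1 h at 25 °C, then developer added; fluorescence (Ex 350–380/Em 440–460) fitted sigmoidally for IC50.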

Structure (SMILES)	melting point	IC50 [1]
CN(Cc1cc2nc(-c3cccc4[nH]ncc34)nc(N3CCOCC3)c2s1)CC1CCN(c2ncc(C(=O)NO)cn2)CC1 [Compound 16, 2-(4-((((2-(1H-indazol-4-yl)-4-morpholinothieno[3,2-d]pyrimidin-6-yl)methyl)(methyl)amino)methyl)piperidin-1-yl)-N-hydroxypyrimidine-5-carboxamide]	174 to 175 °C	100 to 1000 nM
CS(=O)(=O)N1CCN(Cc2cc3nc(-c4cccc5[nH]ncc45)nc(N4CCN(CCCCC(=O)NO)CC4)c3s2)CC1 [Compound 30, 5-(4-(2-(1H-indazol-4-yl)-6-((4-(methylsulfonyl)piperazin-1-yl)methyl)thieno[3,2-d]pyrimidin-4-yl)piperazin-1-yl)-N-hydroxypentanamide]	142 to 145 °C	100 to 1000 nM
CS(=O)(=O)N1CCN(Cc2cc3nc(-c4cccc5[nH]ncc45)nc(N4CCN(CCCCCC(=O)NO)CC4)c3s2)CC1 [Compound 31, 6-(4-(2-(1H-indazol-4-yl)-6-((4-(methylsulfonyl)piperazin-1-yl)methyl)thieno[3,2-d]pyrimidin-4-yl)piperazin-1-yl)-N-hydroxyhexanamide]	140 to 145 °C	100 to 1000 nM
CS(=O)(=O)N1CCN(Cc2cc3nc(-c4cccc5[nH]ncc45)nc(N4CCN(CCCCCCC(=O)NO)CC4)c3s2)CC1 [Compound 32, 7-(4-(2-(1H-indazol-4-yl)-6-((4-(methylsulfonyl)piperazin-1-yl)methyl)thieno[3,2-d]pyrimidin-4-yl)piperazin-1-yl)-N-hydroxyheptanamide]	131 to 134 °C	100 to 1000 nM
O=C(CCCNCc1cc2nc(-c3cccc4[nH]ncc34)nc(N3CCOCC3)c2s1)NO [Compound 41, 4-((2-(1H-indazol-4-yl)-4-morpholinothieno[3,2-d]pyrimidin-6-yl)methylamino)-N-hydroxybutanamide]	149 to 152 °C	< 100 nM
O=C(CCCCNCc1cc2nc(-c3cccc4[nH]ncc34)nc(N3CCOCC3)c2s1)NO [Compound 42, 5-((2-(1H-indazol-4-yl)-4-morpholinothieno[3,2-d]pyrimidin-6-yl)methylamino)-N-hydroxypentanamide]	145 to 147 °C	< 100 nM
O=C(CCCCCNCc1cc2nc(-c3cccc4[nH]ncc34)nc(N3CCOCC3)c2s1)NO [Compound 43, 6-((2-(1H-indazol-4-yl)-4-morpholinothieno[3,2-d]pyrimidin-6-yl)methylamino)-N-hydroxyhexanamide]	128 to 130 °C	< 100 nM
O=C(CCCCCCNCc1cc2nc(-c3cccc4[nH]ncc34)nc(N3CCOCC3)c2s1)NO [Compound 44, 7-((2-(1H-indazol-4-yl)-4-morpholinothieno[3,2-d]pyrimidin-6-yl)methylamino)-N-hydroxyheptanamide]	188 to 190 °C	100 to 1000 nM
O=C(NO)c1ccc(NCc2cc3nc(-c4cccc5[nH]ncc45)nc(N4CCOCC4)c3s2)cc1 [Compound 78, 4-((2-(1H-indazol-4-yl)-4-morpholinothieno[3,2-d]pyrimidin-6-yl)methylamino)-N-hydroxybenzamide]	180 to 183 °C	< 100 nM
O=C(/C=C/c1ccc(NCc2cc3nc(-c4cccc5[nH]ncc45)nc(N4CCOCC4)c3s2)cc1)NO [Compound 80, (E)-3-(4-((2-(1H-indazol-4-yl)-4-morpholinothieno[3,2-d]pyrimidin-6-yl)methylamino)phenyl)-N-hydroxyacrylamide]	> 300 °C	100 to 1000 nM
CN(Cc1cc2nc(-c3cccc4[nH]ncc34)nc(N3CCOCC3)c2s1)c1ccc(/C=C/C(=O)NO)cc1 [Compound 81, (E)-3-(4-(((2-(1H-indazol-4-yl)-4-morpholinothieno[3,2-d]pyrimidin-6-yl)methyl)(methyl)amino)phenyl)-N-hydroxyacrylamide]	188 to 190 °C	1000 to 10000 nM
CC(C)(C)CN(Cc1cc2nc(-c3cccc4[nH]ncc34)nc(N3CCOCC3)c2s1)c1ncc(C(=O)NO)cn1 [Compound 83, 2-(((2-(1H-indazol-4-yl)-4-morpholinothieno[3,2-d]pyrimidin-6-yl)methyl)(neopentyl)amino)-N-hydroxypyrimidine-5-carboxamide]	240 to 242 °C	1000 to 10000 nM
CCCN(Cc1cc2nc(-c3cccc4[nH]ncc34)nc(N3CCOCC3)c2s1)c1ncc(C(=O)NO)cn1 [Compound 84, 2-(((2-(1H-indazol-4-yl)-4-morpholinothieno[3,2-d]pyrimidin-6-yl)methyl)(propyl)amino)-N-hydroxypyrimidine-5-carboxamide]	224 to 226 °C	< 100 nM
CCCCN(Cc1cc2nc(-c3cccc4[nH]ncc34)nc(N3CCOCC3)c2s1)c1ncc(C(=O)NO)cn1 [Compound 85, 2-(((2-(1H-indazol-4-yl)-4-morpholinothieno[3,2-d]pyrimidin-6-yl)methyl)(butyl)amino)-N-hydroxypyrimidine-5-carboxamide]	234 to 236 °C	< 100 nM
CC(C)CN(Cc1cc2nc(-c3cccc4[nH]ncc34)nc(N3CCOCC3)c2s1)c1ncc(C(=O)NO)cn1 [Compound 93, 2-(((2-(1H-indazol-4-yl)-4-morpholinothieno[3,2-d]pyrimidin-6-yl)methyl)(isobutyl)amino)-N-hydroxypyrimidine-5-carboxamide]	196 to 198 °C	100 to 1000 nM
CN(CCCC(=O)NO)Cc1cc2nc(-c3cccc4[nH]ncc34)nc(N3CCOCC3)c2s1 [Compound 101, 4-(((2-(1H-indazol-4-yl)-4-morpholinothieno[3,2-d]pyrimidin-6-yl)methyl)(methyl)amino)-N-hydroxybutanamide]	115 to 118 °C	> 10000 nM
CN(CCCCC(=O)NO)Cc1cc2nc(-c3cccc4[nH]ncc34)nc(N3CCOCC3)c2s1 [Compound 102, 5-(((2-(1H-indazol-4-yl)-4-morpholinothieno[3,2-d]pyrimidin-6-yl)methyl)(methyl)amino)-N-hydroxypentanamide]	120 to 122 °C	100 to 1000 nM
CN(CCCCCC(=O)NO)Cc1cc2nc(-c3cccc4[nH]ncc34)nc(N3CCOCC3)c2s1 [Compound 103, 6-(((2-(1H-indazol-4-yl)-4-morpholinothieno[3,2-d]pyrimidin-6-yl)methyl)(methyl)amino)-N-hydroxyhexanamide]	115 to 118 °C	< 100 nM
CN(CCCCCCC(=O)NO)Cc1cc2nc(-c3cccc4[nH]ncc34)nc(N3CCOCC3)c2s1 [Compound 104, 7-(((2-(1H-indazol-4-yl)-4-morpholinothieno[3,2-d]pyrimidin-6-yl)methyl)(methyl)amino)-N-hydroxyheptanamide]	131 to 133 °C	100 to 1000 nM
CC(=O)Nc1cccc(-c2nc(N3CCOCC3)c3sc(CN(C)c4ncc(C(=O)NO)cn4)cc3n2)c1 [Compound 107, 2-(((2-(3-acetamidophenyl)-4-morpholinothieno[3,2-d]pyrimidin-6-yl)methyl)(methyl)amino)-N-hydroxypyrimidine-5-carboxamide]	183 to 185 °C	< 100 nM
